Data on 16 compounds can be found in EP1159261B1, “ANTIZYME MODULATORS AND THEIR USE” (ORIDIGM CORPORATION, priority 1999, dated 2000).

In experiment [1] the test system is human antizyme sequence. The experiment is described as follows: in vitro antizyme dual luciferase frameshifting assay (in vitro translation in reticulocyte lysate). Format: biochemical. The note with it: for In vitro antizyme induction / antizyme induction: result in words; for antizyme induction: sentence does not say in vitro or in vivo, context is the in vitro assay. From the text:
As one skilled in the art would appreciate, there are a multitude of means to test the agmatine and polyamine analogs of the invention for the ability to induce a frameshift. […] This assay allows one to measure the efficiency of translational frameshifting on the human antizyme sequence. Briefly, two variations of the human antizyme sequence were cloned between the renilla (5') and firefly (3') luciferase reporter genes in pRL-SV40 (Promega) plasmids. One plasmid contained the wild type antizyme sequence which requires a +1 frameshift for complete translation, the other plasmid contained modified, in-frame antizyme (control) sequences. These plasmids are utilized to transiently or stably transfect human cell lines with either the wild type or in-frame antizyme sequence-containing plasmids. Renilla and firefly luciferase activity in each assay (with cells containing one of the two plasmids) is measured to account for polymerase fall-off or translational efficiency in the presence or absence of the agmatine and polyamine analogs of the invention. That ratio is used to normalize the firefly luciferase activity seen in the wild type sequence, compared to the in-frame control sequence.
In vitro assays of the effect of agmatine and polyamine analogs on antizyme frameshifting were performed as follows. Linearized plasmids containing the wild type and in-frame antizyme sequence were transcribed in vitro, followed by in vitro translation in reticulocyte lysate, with and without agmatine and polyamine analogs. Luminescence was measured using the Dual-Luciferase™ reporter assay (Promega).
This assay allows one to measure the efficiency of translational frameshifting on the human antizyme sequence. Briefly, two variations of the human antizyme sequence were cloned between the renilla (5') and firefly (3') luciferase reporter genes in pRL-SV40 (Promega) plasmids. One plasmid contained the wild type antizyme sequence which requires a +1 frameshift for complete translation, the other plasmid contained modified, in-frame antizyme (control) sequences. These plasmids are utilized to transiently or stably transfect human cell lines with either the wild type or in-frame antizyme sequence-containing plasmids. Renilla and firefly luciferase activity in each assay (with cells containing one of the two plasmids) is measured to account for polymerase fall-off or translational efficiency in the presence or absence of the analogs of the invention. That ratio is used to normalize the firefly luciferase activity seen in the wild type sequence, compared to the in-frame control sequence.
In vitro assays of the effect of agmatine analogs on antizyme frameshifting were performed as follows. Linearized plasmids containing the wild type and in-frame antizyme sequence were transcribed in vitro, followed by in vitro translation in reticulocyte lysate, with and without agmatine analogs . Luminescence was measured using the Dual-Luciferase™ reporter assay (Promega).

The test system of experiment [2] is human antizyme sequence. The experiment is described as follows: in vivo (cellular) antizyme dual luciferase frameshifting assay in transfected cell lines. The format is cell-based. The note with it: for In vivo (cellular) antizyme induction: result in words. The method, then: As one skilled in the art would appreciate, there are a multitude of means to test the agmatine and polyamine analogs of the invention for the ability to induce a frameshift. For example, Satriano et al. (J. Biol. Chem., 273:15313-15316 (1998)) and the references cited therein utilized an in vitro reticulocyte system. The agmatine and polyamine analogs of the invention were tested in vitro (such as by test tube) and in vivo (such as by cell culture) using the antizyme dual luciferase frameshifting assay as described by Grentzmann, G., et al in RNA 4:479-486, 1998. This assay allows one to measure the efficiency of translational frameshifting on the human antizyme sequence. Briefly, two variations of the human antizyme sequence were cloned between the renilla (5') and firefly (3') luciferase reporter genes in pRL-SV40 (Promega) plasmids. One plasmid contained the wild type antizyme sequence which requires a +1 frameshift for complete translation, the other plasmid contained modified, in-frame antizyme (control) sequences. These plasmids are utilized to transiently or stably transfect human cell lines with either the wild type or in-frame antizyme sequence-containing plasmids. Renilla and firefly luciferase activity in each assay (with cells containing one of the two plasmids) is measured to account for polymerase fall-off or translational efficiency in the presence or absence of the agmatine and polyamine analogs of the invention. That ratio is used to normalize the firefly luciferase activity seen in the wild type sequence, compared to the in-frame control sequence. […] Agmatine and polyamine analogs of the invention were tested in vitro (such as by test tube) and in vivo (such as with cell lines) using the antizyme dual luciferase frameshifting assay as described by Grentzmann, G., et al in RNA 4:479-486, 1998. This assay allows one to measure the efficiency of translational frameshifting on the human antizyme sequence. Briefly, two variations of the human antizyme sequence were cloned between the renilla (5') and firefly (3') luciferase reporter genes in pRL-SV40 (Promega) plasmids. One plasmid contained the wild type antizyme sequence which requires a +1 frameshift for complete translation, the other plasmid contained modified, in-frame antizyme (control) sequences. These plasmids are utilized to transiently or stably transfect human cell lines with either the wild type or in-frame antizyme sequence-containing plasmids. Renilla and firefly luciferase activity in each assay (with cells containing one of the two plasmids) is measured to account for polymerase fall-off or translational efficiency in the presence or absence of the analogs of the invention. That ratio is used to normalize the firefly luciferase activity seen in the wild type sequence, compared to the in-frame control sequence.

In experiment [3] the test system is breast carcinoma cell line, MDA-MB-231. The experiment is described as follows: cell growth inhibition, seven days, MTS/PMS dye assay. Format: cell-based. The note with it: for pIC50: Homo sapiens. The method, then: The IC50 values in the above Table as well as Tables 1B and 1C below were determined with the breast carcinoma cell line, MDA-MB-231.
Cells were plated in 96-well plates such that they would be in log growth for the duration of the assay. The day after plating, drugs were added to the cells and they were grown for seven days. Cell growth was measured by MTS/PMS dye assay (Promega). The assay was done in the presence of 1 mM aminoguanidine to inhibit amine oxidases from the serum in the culture media and 1 µM spermidine to insure that any growth inhibition was not the result of depletion of external polyamines from the media. The assay was also performed over seven days because this allows for the greatest dynamic range in cell growth due to the mechanism of concomitant inhibition of polyamine biosynthesis and transport. Cells need to divide several times before the intracellular level of polyamines begin to decrease to growth inhibitory levels.
(§1) For example, compounds ORI 1041 and ORI 1093 were evaluated as polyamine transport inhibitors and for growth inhibition in a cell based (MDA-MB-231 breast cancer cell line) assay with and without DFMO.

For experiment [4], the system named is polyamine transporter. The experiment is described as follows: polyamine transport assay (^3H-spermidine uptake into cells). The format is cell-based. The note with it: result in words. The method, then:
Cells in log growth are pre-incubated with an agmatine analog followed by addition of ^3H-spermidine. […] The cells were then washed three times with cold PBS, lysed with 0.1% SDS, and the amount of polyamine incorporation into the cells was determined by scintillation counting of the cell lysates. To determine a Ki, four substrate concentrations and five inhibitor concentrations and a control were tested. The Ki was determined by a non-linear fit to the Michaelis-Menten equation.
as §1

The mark [5] stands for this setting: MDA-MB-231, with DFMO, unit inferred, read-out: Cell Growth IC50+DFMO.
Where [6] appears, read: MDA-MB-231, without DFMO, unit printed in b172 only, read-out: Cell Growth IC50.

In general, pIC50 refers to the IC50 on a negative log10 scale, so that one unit is a factor of ten.

pIC50: −log10 of the molar value. “Also recorded” adds a separate entry of the source. Read-outs that look alike come from different tables or passages of the source.

As for L-Lys-spermine conjugate [Analog 1202], the “In vitro antizyme induction” value in experiment [1] was “diminished ability to induce antizyme”. Besides, the “In vivo (cellular) antizyme induction” value in experiment [2] is on record as “positive; also recorded: diminished ability to induce antizyme”.
Taken in the same sequence, the figures for `NCCCCCN` [cadaverine, reference compound] were “no induction was observed; also recorded: no in vitro activity” and “only slightly less active than putrescine; also recorded: significant in vivo activity”.
Regarding `CC(=O)NCCCNCCCCNCCCN` [Analog 1110, N^1-acetylspermine], the “In vivo (cellular)” value in experiment [2] (antizyme induction @ 10 mM) was found to be 30% @ 10 mM. Also, the “In vivo (cellular) antizyme induction” value in experiment [2] is recorded as “demonstrated antizyme inducing activity”; in experiment [2] (listed as ORI 1110), “diminished ability to induce the expression of active antizyme in comparison with spermidine”.
As for `NCCCCON` [Analog 1292, AOBA], the antizyme induction result in experiment [1] was “no induction activity is observed”.
`N=C(N)NOCC[C@H](N)C(=O)O` [Analog 1284, L-canavanine]: the “In vitro antizyme induction” value in experiment [1] is “no activity”.
Consider `NCCCCNCCCCNCCCCN` [Analog 1190], for which the “In vivo (cellular) antizyme induction” value in experiment [2] was “negative; also recorded: no ability to induce antizyme”.
With `NCCCNCc1ccc(CNCCCN)cc1` [Analog 1283], the “In vivo (cellular) antizyme induction” value in experiment [2] is reported as “positive; also recorded: increase in induction activity”.
Take `NCCCCNCCCN` [Spermidine, reference compound]: the In vitro in experiment [1] (antizyme induction @ 1 mM) came out at 22% @ 1 mM. Besides, the “In vivo (cellular)” value in experiment [2] (antizyme induction @ 16 mM) is recorded as 35% @ 16 mM.
Take L-Val-spermine [Analog 1157]: the “In vitro antizyme induction” value in experiment [1] is “retained the ability to induce antizyme”.
For the compound `NCCCNCCCCNCCCNS(=O)(=O)c1ccc2oc3ccccc3c2c1` [Analog 1041], the pIC50 in experiment [3] (setting [5]) is 4.28; in experiment [3] (setting [6]), 4.30; in experiment [3] (MDA-MB-231, Tables 1A and 1B, unit inferred, read-out: IC50), 4.92. The “R value (R= IC50/ IC50+DFMO)” value in experiment [3] (MDA-MB-231) is on record as approximately 1. Besides, in experiment [1] (antizyme induction at 0.06 mM), the In vitro came to 15% at 0.06 mM. The “In vitro antizyme induction” value in experiment [1] is listed as “demonstrated in vitro induction activity; also recorded: dramatic increase in in vitro induction activity in comparison with spermidine”. Further, in experiment [4], the polyamine transport inhibition result was “fairly good transport inhibitor”.
On to `CC(N)CCC(C)N` (stereo not shown) [Analog 1351, 2,5-diaminohexane], for which the “In vitro antizyme induction” value in experiment [1] is “induces antizyme”.
Turning to α-dimethylspermine [Analog 1383], the “In vivo (cellular) antizyme induction” value in experiment [2] is given as “positive; also recorded: to the same extent as spermine”.
On to `NCCCNCCCCNCCCN` [spermine, reference compound], for which, in experiment [1], the “In vitro antizyme induction” value is given as “induced antizyme”. The “In vivo (cellular) antizyme induction” value in experiment [2] is on record as “induced antizyme”.
On to `NCCCC[C@H](N)C(=O)O` [L-lysine, reference compound], for which, in experiment [1], the antizyme induction entry is given as “does not induce antizyme activation”.
Same read-out and setting: in the case of `NCCCON` [Analog 1291, AOPA] it was “no induction activity is observed”.
On to `O=S(=O)(NCCCNCCCCNCCCNS(=O)(=O)c1ccc2oc3ccccc3c2c1)c1ccc2oc3ccccc3c2c1` [Analog 1293], for which the pIC50 in experiment [3] (setting [5]) and in experiment [3] (setting [6]) was 5.70 each time. Moreover, the “R value (R= IC50/ IC50+DFMO)” value in experiment [3] (MDA-MB-231) is approximately 1. Moreover, the polyamine transport inhibition result in experiment [4] is “fairly poor transport inhibitor”.
